{
  "source": "paper PMC9016803",
  "about": "“Mitochondria-targeted half-sandwich iridium(III)-Cp*-arylimidazophenanthroline complexes as antiproliferative and bioimaging agents against triple negative breast cancer cells MDA-MB-468” (RSC Advances, 2022)",
  "key": {"CT-DNA": {"system": "CT-DNA", "assay": "Ethidium bromide displacement (fluorescence quenching) assay", "assay_type": "binding, calf", "description": "The competitive binding of compounds IrL1 to CT-DNA was studied via fluorescence spectroscopy using ethidium bromide (EtBr) as the fluorophore. […] Intrinsic binding constant (Kb), Stern–Volmer quenching constant (Ksv) and apparent binding constant (Kapp) were highlighted in Table 2. […]\nEthidium bromide displacement assay\nThe ethidium bromide (EtBr) displacement assay was carried out to illustrate the mode of binding between the potent compounds with DNA.4 The apparent binding constant (K app) of the complexe IrL1 to Ct-DNA were calculated using ethidium bromide (EtBr) as a spectral probe in 5 mM Tris-HCl buffer (pH 7.4). The values of the apparent binding constant (K app) were obtained by using the equation (iii):\nKapp × [Complex]50 = kEtBr × [EtBr]⋯⋯⋯(iii)\nWhere KEtBr is the EtBr binding constant (K EtBr = 1.0 x 107 M-1), and [EtBr] = 8 x 10^-6 M.\nStern-Volmer equation was followed for quantitative determination of the Stern-Volmer quenching constant (K SV).5 Origin (8.5) software was used to plot the fluorescence data to obtain linear plot of I0/I vs. [complex]. The value of KSV was calculated from the following […]\nWhere I0 = fluorescence intensity in absence of complex and I = fluorescence intensities in presence of complex of concentration [Q].\nWe are acquainted with the fact that serum albumin proteins are the main component. […]"}, "[1]": {"assay": "n-Octanol/water partition coefficient, shake flask method", "assay_type": "physicochemical", "description": "Both hydrophilicity and lipophilicity studies were performed to determine the tumour-inhibiting potential of the metal complexes. These complexes were highly soluble in DMSO and moderately soluble in H2O, MeOH, EtOH and CH3CN. […] The lipophilicity of these complexes was determined by performing an n-octanol/water partition coefficient (log Po/w, where Po/w = the octanol/water partition coefficient) study using the shake flask method (Table 1).[24] The experimental log Po/w values of these complexes were determined to be in the range of 0.27–0.34 (Table 1). […] This change in the electrolytic behaviour of the complexes from 1 : 1 to 1 : 2 can be attributed to the dissociation of the Ir–Cl bond and subsequent aquation of the complexes. […]\nn-Octanol–water partition coefficient (log P o/w)9\nThe log Po/w of the iridium complexes were adhering to shake flask method using the previously published procedure. A known amount of each complex (IrL1-IrL5) was suspended in water (pre-saturated with n-octanol) and shaken for 48 h on an orbital shaker.\nTo allow the phase separation, the solution was centrifuged for 10 min at 3000 rpm. To obtain the partition coefficient, different ratios (0.5: 1, 1: 1, and 2: 1) of the saturated solutions were shaken with pre-saturated n-octanol for 20 min on an orbital shaker and followed the same procedure. Aliquots of the aqueous and octanol layers were pipetted out separately and the absorbances were measured with UV-Vis spectrophotometer using proper dilution. Each set was performed in triplicate, concentration of the substances in each layer was calculated using the respective molar extinction coefficients and the partition coefficient (log P o/w) values were obtained from the ratio."}, "MDA-MB-468 cells": {"system": "MDA-MB-468 cells", "assay": "ROS generation, DCFDA staining", "assay_type": "cell-based", "description": "Our results indicated a dose dependent increase in ROS production in the MDA-MB-468 cells treated with IrL1 concentrations 1 μM and 3 μM. The extent of ROS production is indicated by the 2′,7′-dichlorofluorescein (DCF) formed by the deacetylation and subsequent oxidation of 2′,7′-dichlorofluorescin diacetate (DCFDA) through cellular esterases and ROS. […] ROS production was absent in untreated control. However, in the positive control, treated with H2O2, ROS production was high which is ∼99% (Fig. 11).\nColocalization study and ROS generation studies were performed using live cell lines in their log phase."}},
  "data": [
    {"substance": "[Iridium(III)-Cp*-2-(naphthalen-1-yl)-1H-imidazo[4,5-f][1,10]phenanthroline]PF6 [IrL1]", "values": [
      {"measurement": "Ksv, Stern–Volmer quenching constant", "setting": "CT-DNA; EtBr-bound CT-DNA", "value": 22000, "unit": "M⁻¹"},
      {"measurement": "Kapp, apparent DNA binding constant", "setting": "CT-DNA; competitive displacement of EtBr", "value": 2500, "unit": "M⁻¹"},
      {"measurement": "log P (n-octanol/water partition coefficient)", "setting": "[1]", "value": "0.27 ± 0.07"},
      {"measurement": "DCF positive cells", "setting": "MDA-MB-468 cells; 1 μM", "value": 55.01, "unit": "%"},
      {"measurement": "DCF positive cells", "setting": "MDA-MB-468 cells; 3 μM", "value": 70.67, "unit": "%"}
    ]}
  ]
}
